Data on 14 compounds can be found in ChEMBL document CHEMBL2150924, “Inhibition of NaV1.6 sodium channel currents by a novel series of 1,4-disubstituted-triazole derivatives obtained via copper-catalyzed click chemistry” (Bioorg Med Chem Lett, 2012).

Experiment [1] has as its target Sodium channel protein type 8 subunit alpha (Rattus norvegicus, UniProt O88420). The experiment is described as follows: Inhibition of rat NaV1.6-mediated current expressed in human HEK293 cells by patch clamp assay. In kind it is cell-based. (In general: Patch clamp records ionic current or voltage across a cell membrane.)
In experiment [2] the target is Sodium channel protein type 8 subunit alpha (Rattus norvegicus) (UniProt O88420). In words: Inhibition of rat NaV1.6-mediated current expressed in human HEK293 cells at 10 uM by patch clamp assay. In kind it is cell-based.
Sequence of Sodium channel protein type 8 subunit alpha (Rattus norvegicus) (O88420 whole entry): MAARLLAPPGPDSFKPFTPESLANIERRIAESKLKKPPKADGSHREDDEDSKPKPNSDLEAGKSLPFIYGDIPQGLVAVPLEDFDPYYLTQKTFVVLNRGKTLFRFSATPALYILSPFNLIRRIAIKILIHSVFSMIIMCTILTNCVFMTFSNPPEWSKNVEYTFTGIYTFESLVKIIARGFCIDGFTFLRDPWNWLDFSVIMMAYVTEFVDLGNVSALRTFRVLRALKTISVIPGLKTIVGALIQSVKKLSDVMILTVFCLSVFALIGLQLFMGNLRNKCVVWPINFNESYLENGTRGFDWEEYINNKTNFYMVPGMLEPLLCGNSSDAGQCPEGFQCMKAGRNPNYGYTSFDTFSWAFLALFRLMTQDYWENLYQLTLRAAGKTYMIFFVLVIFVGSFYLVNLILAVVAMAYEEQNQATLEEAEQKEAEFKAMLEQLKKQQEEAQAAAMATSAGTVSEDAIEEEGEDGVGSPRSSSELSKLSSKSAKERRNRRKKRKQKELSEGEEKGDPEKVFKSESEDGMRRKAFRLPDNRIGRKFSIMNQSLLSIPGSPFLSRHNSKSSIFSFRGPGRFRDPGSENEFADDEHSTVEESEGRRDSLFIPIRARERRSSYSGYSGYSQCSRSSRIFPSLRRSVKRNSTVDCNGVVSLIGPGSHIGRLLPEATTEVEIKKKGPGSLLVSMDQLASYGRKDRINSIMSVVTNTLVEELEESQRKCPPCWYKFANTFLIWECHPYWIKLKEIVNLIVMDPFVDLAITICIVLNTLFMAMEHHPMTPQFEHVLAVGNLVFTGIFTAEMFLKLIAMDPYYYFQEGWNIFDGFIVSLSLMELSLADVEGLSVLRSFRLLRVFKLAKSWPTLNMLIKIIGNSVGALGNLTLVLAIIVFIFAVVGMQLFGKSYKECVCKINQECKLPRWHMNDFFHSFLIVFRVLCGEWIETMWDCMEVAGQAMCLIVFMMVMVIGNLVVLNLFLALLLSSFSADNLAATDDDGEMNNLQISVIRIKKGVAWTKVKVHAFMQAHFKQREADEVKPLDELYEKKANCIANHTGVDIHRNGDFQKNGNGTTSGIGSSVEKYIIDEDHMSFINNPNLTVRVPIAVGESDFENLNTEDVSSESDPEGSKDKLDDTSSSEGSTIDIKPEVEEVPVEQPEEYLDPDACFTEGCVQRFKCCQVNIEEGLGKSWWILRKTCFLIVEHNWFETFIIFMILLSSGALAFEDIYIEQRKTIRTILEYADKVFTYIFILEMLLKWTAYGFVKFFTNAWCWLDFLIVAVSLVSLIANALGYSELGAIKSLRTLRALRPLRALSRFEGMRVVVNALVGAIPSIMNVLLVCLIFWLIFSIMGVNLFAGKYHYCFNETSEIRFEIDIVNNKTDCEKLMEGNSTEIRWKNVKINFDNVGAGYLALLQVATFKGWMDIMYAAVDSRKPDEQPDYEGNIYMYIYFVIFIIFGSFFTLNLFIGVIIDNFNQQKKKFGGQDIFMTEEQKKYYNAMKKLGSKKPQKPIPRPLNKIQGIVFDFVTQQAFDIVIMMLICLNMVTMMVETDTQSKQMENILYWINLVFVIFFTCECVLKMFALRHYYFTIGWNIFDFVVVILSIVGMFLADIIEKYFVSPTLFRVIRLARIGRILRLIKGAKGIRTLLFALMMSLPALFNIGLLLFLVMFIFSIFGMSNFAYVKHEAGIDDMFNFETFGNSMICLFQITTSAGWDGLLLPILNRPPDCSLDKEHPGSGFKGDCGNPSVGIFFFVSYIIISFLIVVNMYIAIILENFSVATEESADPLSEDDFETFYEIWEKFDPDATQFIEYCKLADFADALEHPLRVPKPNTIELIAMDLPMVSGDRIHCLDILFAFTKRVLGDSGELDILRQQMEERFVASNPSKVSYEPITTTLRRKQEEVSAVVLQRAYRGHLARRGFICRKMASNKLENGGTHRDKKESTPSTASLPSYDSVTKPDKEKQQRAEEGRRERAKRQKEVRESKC

Sequence of Sodium channel protein type 8 subunit alpha (O88420 whole entry): as above

Broadly, the IC50 is the point on the concentration scale where inhibition reaches its midpoint. Lower therefore signals greater potency in that assay. For orientation: inhibition means how much of the control response was suppressed. For `COc1ccc(-c2nc(-c3ccccc3)c[nH]2)cc1`, the midpoint of inhibition in experiment [1], the IC50, lay at 19.6 µM. This compound also had an inhibition in experiment [2] of 21.7%.

With `c1ccc(CCn2cc(CCCOc3ccccc3)nn2)cc1`, the half-inhibitory concentration (IC50) in experiment [1] came to 52 µM. Besides, in experiment [2], the inhibition is 22.7%.

Compound `c1ccc(Cn2cc(-c3ccccc3)nn2)cc1` registered an IC50 in experiment [1] of 125 µM. In experiment [2], the inhibition is 10%.

Consider `O=C(Cn1cc(CCCOc2ccccc2)nn1)c1ccccc1`, for which the IC50 in experiment [1] was determined as 53.6 µM. The inhibition in experiment [2] came out at 22.7%.

In experiment [2], `c1ccc(-c2c[nH]c(-c3ccccc3)n2)cc1` came in with an inhibition of 16%.

In turn, `c1ccc(CCn2cc(-c3ccccc3)nn2)cc1` registered an inhibition in experiment [2] of 11.5%.

For `c1ccc(CCn2cc(COc3ccccc3)nn2)cc1`, the inhibition in experiment [2] amounted to 8.9%.

In experiment [2], `c1ccc(Cn2cc(COc3ccccc3)nn2)cc1` returned an inhibition of 11%.

Consider `c1ccc(-c2cn(-c3ccccc3)nn2)cc1`, for which the inhibition in experiment [2] worked out at 6.2%.

As to `O=C(Cn1cc(COc2ccccc2)nn1)c1ccccc1`, the inhibition in experiment [2] is 13.6%.

In experiment [1], `c1ccc(OCc2cn(-c3ccccc3)nn2)cc1` displayed an IC50 of 28.5 µM. Also, the inhibition in experiment [2] was 16%.

In experiment [2], `O=C(Cn1cc(-c2ccccc2)nn1)c1ccccc1` showed an inhibition of 3.9%.

`c1ccc(Cn2cc(CCCOc3ccccc3)nn2)cc1`: the IC50 in experiment [1] turned out to be 31.7 µM. The same compound came in with an inhibition in experiment [2] of 26%.

The compound `c1ccc(OCCCc2cn(-c3ccccc3)nn2)cc1` displayed an inhibition in experiment [2] of 5.9%.
